In patent US11219607B2, “Methods for suppressing cancer-related cachexia” (Ohio State Innovation Foundation, priority 2013, dated 2022):
“Also recorded” adds a separate entry of the source.

Tests used:
Atrogin-1/MAFbx mRNA = experiment: qPCR of gastrocnemius muscle, C-26 model: Atrogin-1; assay type: in vivo, CD2F1 mice; conditions: C-26 tumor-bearing mice, 15 days after tumor cell injection, tumor-bearing/vehicle 29.4±3.5-fold, mean±S.D.
Method: (§1) Total RNA was isolated from homogenized gastrocnemius muscles (n=3/group) with TRIzol reagent (Life Technologies, Carlsbad, Calif.) and then purified using the RNAeasy Mini Kit (Qiagen, Valencia, Calif.). qRT-PCR was performed as described previously (42) by using the Bio-Rad CFX96 Real-Time PCR Detection System with iQ SYBR Green Supermix (Bio-Rad, Hercules, Calif.). RNA-seq library generation and data analysis were performed at The Ohio State University Comprehensive Cancer Center (OSUCCC) Nucleic Acid Shared Resource.
(§2) AR-42 was able to restore expression of Atrogin-1 (2.7±0.7-fold) and MuRF1 (1.1±0.2-fold) mRNA to basal levels […].

MuRF1 mRNA = experiment: qPCR of gastrocnemius muscle, C-26 model: MuRF1; assay type: in vivo, CD2F1 mice; conditions: C-26 tumor-bearing mice, 15 days after tumor cell injection, tumor-bearing/vehicle 25.8±3.9-fold, mean±S.D.
Method: as §1, §2

C-26 tumor-bearing mice [1] = conditions: literature reference (33); cited from earlier work
C-26 tumor-bearing mice [2] = experiment: Survival and body weight comparison of HDAC inhibitors, C-26 model; assay type: in vivo, CD2F1 mice; conditions: vorinostat 50 mg/kg p.o. once daily, romidepsin 0.6 mg/kg i.p. twice weekly, from day 6
Method: In one aspect, tumors were established by subcutaneous injection of C-26 cells (0.5×10^6 cells in 0.1 ml) into the right flank of male CD2F1 mice (approximately 6 weeks of age; Harlan Laboratories, Indianapolis, Ind.)(11). Tumor-bearing mice, as well as tumor-free mice serving as non-cachectic controls, were randomized into groups that were treated with either AR-42 (50 mg/kg, p.o. by gavage, every other day; Arno Therapeutics, Inc., Flemington, N.J.) or vehicle (0.5% methylcellulose (w/v) and 0.1% Tween-80 (v/v) in sterile water) starting 6 days after cell injection. To investigate the effect of delayed treatment, treatments with drug and/or vehicle were started 6, 10 and 12 days after cancer cell injection.
In another aspect, the effects of AR-42 were compared to other HDAC inhibitors. […]
The effects of AR-42 were compared to other HDAC inhibitors (i.e., vorinostat and romidepsin) in C-26 tumor-bearing mice. Starting on day 6 after tumor cell injection, mice were treated continuously with AR-42 (50 mg/kg every other day, orally), vorinostat [50 mg/kg once daily, orally (13)], romidepsin [0.6 mg/kg twice weekly, i.p. (14)], or vehicle, until weight loss, as determined by daily body weight measurements and subtraction of tumor mass, reached 20% of starting weight. […]

SMILES	Atrogin-1 mRNA level relative to tumor-free/vehicle control (Atrogin-1/MAFbx mRNA) [fold]	MuRF1 mRNA level relative to tumor-free/vehicle control (MuRF1 mRNA) [fold]	reversal of muscle loss in C-26 tumor-bearing mice (C-26 tumor-bearing mice [1])	protective effect on body weight / attenuation of cachexia-induced weight loss (C-26 tumor-bearing mice [2])
C/C=C1\NC(=O)[C@H]2CSSCC/C=C/[C@H](CC(=O)N[C@H](C(C)C)C(=O)N2)OC(=O)[C@H](C(C)C)NC1=O [romidepsin]	19.6±3.1	14.6±3.3	–	–
CC(/C=C/C(=O)NO)=C\[C@@H](C)C(=O)c1ccc(N(C)C)cc1 [trichostatin-A]	–	–	could not reverse muscle loss	–
CCCC(CCC)C(=O)O [valproic acid]	–	–	could not reverse muscle loss	–
O=C(CCCCCCC(=O)Nc1ccccc1)NO [vorinostat]	9.6±1.8	5.5±1.1	–	limited or no appreciable protective effects; also recorded: ineffective
